Measurements: PubChem BioAssay (NCI)
Several values for one entry are separate records, joined by “and”; a condition that tells them apart may be missing. Identical values can stand only once.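 Five concentrations, 48 hours, 96-well plates. GI50 is the concentration that inhibits growth by half. TGI marks complete inhibition of growth.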

Columns and labels:
Assay in all cases: inhibition of tumour cell growth, NCI panel, 48 h
LOX IMVI melanoma = tested on: LOX IMVI melanoma
M14 melanoma = tested on: M14 melanoma
MDA-MB-231 breast = tested on: MDA-MB-231 breast
UO-31 renal = tested on: UO-31 renal
OVCAR-4 ovarian = tested on: OVCAR-4 ovarian
786-0 renal = tested on: 786-0 renal
SNB-19 CNS = tested on: SNB-19 CNS
UACC-257 melanoma = tested on: UACC-257 melanoma
SW-620 colon = tested on: SW-620 colon
NCI-H522 lung = tested on: NCI-H522 lung

Structure (SMILES) | TGI (LOX IMVI melanoma) | TGI (M14 melanoma) | TGI (MDA-MB-231 breast) | TGI (UO-31 renal) | TGI (OVCAR-4 ovarian) | TGI (786-0 renal) | TGI (SNB-19 CNS) | TGI (UACC-257 melanoma) | TGI (SW-620 colon) | TGI (NCI-H522 lung) | GI50 (LOX IMVI melanoma) | GI50 (M14 melanoma) | GI50 (MDA-MB-231 breast) | GI50 (UO-31 renal) | GI50 (OVCAR-4 ovarian) | GI50 (786-0 renal) | GI50 (SNB-19 CNS) | GI50 (UACC-257 melanoma) | GI50 (SW-620 colon) | GI50 (NCI-H522 lung)
Cc1ccc(C2NC(=O)c3ccccc3N2)c(C)c1 (stereo not drawn) | > 100 µM | 40 µM | > 100 µM | > 100 µM | > 59.7 µM | 97.5 µM | > 40.8 µM | > 100 µM | > 100 µM | 4.91 µM |  |  |  |  |  |  |  |  |  | 
N#CC(C#N)=C/C=C(\Sc1ccc(F)cc1Cl)c1ccc(Cl)cc1 | 1.3 µM | 2.03 µM | 2.27 µM | > 40.3 µM | > 64.2 µM | 2.39 µM | 23.6 µM | 4.76 µM | 3.82 µM | 10.8 µM | 0.318 µM | 0.433 µM | 0.478 µM | 1.78 µM | 4.97 µM | 0.523 µM | 4.54 µM | 1.8 µM | 0.387 µM | 1.93 µM
COc1ccc2c(c1)-c1nn(CCCN(C)C)c3ccc([N+](=O)[O-])c(c13)N2 | 0.957 µM and 4.08 µM | 4.7 µM and 7 µM | 2.79 µM and 12 µM | 1.9 µM and 6.16 µM | 1.18 µM and 2 µM | 7.68 µM and 12.2 µM | 6.33 µM and 11.3 µM | 3.26 µM and 10.9 µM | 4.69 µM and 3.65 µM | 1.03 µM and 2.26 µM | 0.101 µM and 0.345 µM |  | 0.198 µM and 1.17 µM | 0.165 µM and 0.435 µM | 0.234 µM and 0.649 µM |  | 0.192 µM and 0.59 µM | 0.455 µM and 1.1 µM | 0.0633 µM | 0.117 µM and 0.385 µM
O=C(CCCN1CCC(C(O)c2ccc(F)cc2)CC1)c1ccc(F)cc1 (stereo not drawn) | 103 µM | 109 µM | 89.7 µM | 79.3 µM | 134 µM | 96.6 µM | 114 µM | 121 µM | 123 µM | 139 µM |  |  |  |  |  |  |  |  |  | 
O=C1CC/C(=C/COc2cc(=O)oc3ccccc23)O1 | 19.7 µM | 13 µM | 24.4 µM | 21.2 µM | 14.4 µM | 15.9 µM | 26.7 µM | 27.7 µM | 18.2 µM | 4.36 µM | 6.41 µM | 2.48 µM | 11.5 µM | 7.65 µM | 1.62 µM | 2.54 µM | 10.9 µM | 12.9 µM | 4.37 µM | 1.73 µM
O=C(CC1C=Cc2ccccc2N1C(=O)c1ccccc1)c1ccccc1 (stereo not drawn) | 67.8 µM | 65.6 µM | 94 µM | > 100 µM | > 100 µM | > 100 µM | > 100 µM | 61.3 µM | > 100 µM | 53.2 µM |  |  |  |  |  |  |  |  |  | 
Cc1cccc2c3c(sc12)C(c1ccc(F)cc1)C(C#N)=C(N)O3 (stereo not drawn) | 5.2 µM | 11.7 µM | 8.4 µM | 15.5 µM | 17.1 µM | 14.2 µM | 12.2 µM | 36.8 µM | 14.2 µM | 1.49 µM | 0.0608 µM | 0.0976 µM | 0.346 µM | 0.286 µM | 0.528 µM | 0.297 µM | 0.081 µM | 10.6 µM | 0.044 µM | 0.0353 µM
